This is an account of results in US5962409A, “Somatostatin-analogous cyclic peptides with inhibitory activity on growth hormone” (priority 1995, dated 1999).

Assay [1] has as its system 70 kDa complex (1 or 4 sub-type somatostatin receptors), GH 3 rat cell line. Kind of assay: Displacement of radioiodinated 11-Tyr somatostatin-14 from somatostatin receptors, 70 kDa complex (gel electrophoresis/autoradiography). Type of assay: binding. The note with it: 10^-6 M; auto-radiographies in electrophoresis. On the procedure:
(§1) The study of the binding of the peptides on somatostatin receptors has been carried out according to the displacement method which consists in replacing from the receptors the radioligand (11-Tyr radioiodinated somatostatin 14-) before electrophoretic analysis on a denaturant polyacrylaminde gel (Prevost et al. European J. Cancer, 11, 1589-1592,1993).
(§2) The biological activity was tested on rat and human cell lines, namely a GH 3 rat cell line established starting from a pituitary tumor with two 70 and 57 kDa receptors; MCF7 human cell line established starting from a pleural effusion of a breast carcinoma with two main 57 and 42 kDa receptors and human cell line established starting from a small cell carcinoma of the lung with a 57 kDa receptor.
(§3) The tested peptides were suspended in 0.1% acetic acid at the final concentration of 10 mM and stored at 4° C.
(§4) Tests were carried out at a 10^-6 M concentration.

The subject of assay [2] is 57 kDa complex (somatostatin receptor sub-type 2). Kind of assay: Displacement of radioiodinated 11-Tyr somatostatin-14 from somatostatin receptors, 57 kDa complex (gel electrophoresis/autoradiography). The note with it: 10^-6 M; auto-radiographies in electrophoresis. Type of assay: binding, rat and human. On the procedure: as §1, §2, §3, §4

With `C[C@H](N)C(=O)NCC(=O)N[C@H]1CSSC[C@@H](C(=O)O)NC(=O)[C@H](CO)NC(=O)[C@H]([C@@H](C)O)NC(=O)[C@H](Cc2ccccc2)NC(=O)[C@H]([C@@H](C)O)NC(=O)[C@H](CCCCN)NC(=O)[C@H](Cc2c[nH]c3ccccc23)NC(=O)[C@H](Cc2ccccc2)NC(=O)[C@H](Cc2ccccc2)NC(=O)[C@H](CC(N)=O)NC(=O)[C@H](CCCCN)NC1=O` [somatostatin-14], the “suppression of the 70 kDa radioligand-receptor complex” value in assay [1] was “suppressed”. Antarelix: the “displacement of the 57 kDa radioligand-receptor complex” value in assay [2] is given as “not”.
